Source: US20260374739A1, “SMALL MOLECULAR WEIGHT CHEMICAL COMPOUND TO ANTAGONIZE EPH-EPHRIN TETRAMERIZATION AND INHIBIT BIDIRECTIONAL SIGNALING” (THE BOARD OF REGENTS OF THE UNIVERSITY OF TEXAS SYSTEM, priority 2022, published 2026)

What was measured:
[1] = tested on: normal human dermal fibroblast (NHDF) cells; experiment: MTT cytotoxicity; assay type: cell-based; conditions: up to 10 μM, 48 hr
Description: Potential cytotoxicity of A20 was evaluated using MTT assay performed after culturing normal human dermal fibroblast (NHDF) cells with increasing concentrations of A20 for 48 hr.

[2] = molecular target: pre-formed EphrinB2-EphB1 tetramer (Homo sapiens, UniProt P54762); experiment: Octet competition of pre-existing tetramers, human EphrinB2-EphB1; assay type: binding; conditions: 2, 10, 50 μM
Description: Biophysical studies were conducted to explore if A20 is able to disrupt pre-existing stable tetramers, focusing on interactions of immobilized human EphrinB2 binding to soluble human EphB1 and EphB2, and immobilized mouse EphB2 binding to mouse EphrinB2 (FIGS. 29A-29C). In these experiments, sensor-chip immobilized proteins were first exposed to 50 nM of their soluble target protein for an 800 sec association step and 1,000 sec dissociation step to generate pre-formed stable tetramers, which were then subjected to a 1,000 sec competition step that included either 0, 2, 10, or 50 μM concentrations of A20 salt compound. […] The ability of A20 to disrupt pre-existing tetramers was most pronounced for human EB2-EphB2 and cognate murine EphB2-EB2 experiments and indicated a gradual ongoing dose-dependent decline in tetramers throughout the 1,000 sec competition step (and beyond if allowed) and irrespective of whether the human EphrinB2 or murine EphB2 was the immobilized protein.

EphB2-His-Fc / EB2-His = molecular target: T1, EphB2-His-Fc / EB2-His (Mus musculus, UniProt P54763); experiment: pulldown EB2-His to EphB2-His-Fc; assay type: binding
T1 construct: a dual-tagged EphB2-His-Fc ectodomain protein; mouse EB2-His residues 18-232; purchased R&D Systems (EphB-Fc); Sino Biologicals (EphrinB-His)

EphB2-EphrinB2 tetramer = EphB2-EphrinB2 tetramer (Homo sapiens, UniProt P29323); experiment: mass photometry; assay type: binding, mouse EphrinB2; conditions: 216 kDa without
Description: To verify the kinetic studies using the Octet system, mass photometry (MP) that uses optical detection to measure the mass of individual proteins and protein complexes in solution was employed. MP was used to determine the mass of EphB2 and EphrinB2 ectodomain proteins individually or after being combined and allowed to associate into tetramers for a 24 hr period either without or with 10 or 50 μM concentrations of the A20 salt (FIG. 26). For these experiments His-tagged proteins, human hEphB2-His and murine mEB2-His were used. […] During MP experiments EphB2 and EB2 when analyzed alone would each measure as a homodimer, and when the EphB2 and EphrinB2 proteins are combined, the average mass of the protein species shifted to a larger 216 kDa species (FIG. 26C). The size was as expected if two EphB2 and two EphrinB2 molecules complexed together into the stable circular tetramer (130+83=213 kDa). […] It is important to understand that the MP experiments described here are powerful, but also temporally limited because we can really only assess the protein species after interaction homeostasis has been achieved and for this experiment the proteins and A20 were allowed to incubate together for 24 hr before masses were determined.

EphrinB1-EphB1 = molecular target: T2, EphrinB1-EphB1 (Homo sapiens, UniProt P54762); experiment: Octet, immobilized human EphrinB1 binding to human EphB1
T2 sequence (P54762 18-540 limits assumed): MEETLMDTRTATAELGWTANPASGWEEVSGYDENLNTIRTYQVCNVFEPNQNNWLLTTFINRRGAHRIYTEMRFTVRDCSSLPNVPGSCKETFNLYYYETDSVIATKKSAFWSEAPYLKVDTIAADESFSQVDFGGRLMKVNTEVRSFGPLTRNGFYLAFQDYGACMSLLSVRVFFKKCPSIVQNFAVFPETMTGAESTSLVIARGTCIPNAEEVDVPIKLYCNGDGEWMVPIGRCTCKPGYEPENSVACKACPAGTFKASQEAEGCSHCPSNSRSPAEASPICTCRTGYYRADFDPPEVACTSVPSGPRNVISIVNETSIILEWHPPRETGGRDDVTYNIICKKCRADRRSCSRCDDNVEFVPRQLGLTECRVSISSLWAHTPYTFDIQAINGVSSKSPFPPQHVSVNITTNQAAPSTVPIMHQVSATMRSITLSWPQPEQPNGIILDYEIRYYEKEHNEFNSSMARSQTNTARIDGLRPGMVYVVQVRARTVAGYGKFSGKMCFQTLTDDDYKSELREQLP
Description: Studies were conducted to confirm that A20 chemicals can effectively target the human Eph/Ephrin proteins. Octet system was used to first characterize the biophysical interactions of the human B class Eph and Ephrin proteins, and then was tested to assess how A20 may disrupt the interactions. Since the human and rodent proteins are highly conserved, and essentially identical, with EphB2 sharing 99.5% identity between human and mouse, with only 5 of ~1,000 amino acids different, any species-specific differences were not anticipated. Therefore, commercially available human EphrinB1-Fc (EB1), EphrinB2-Fc (EB2), and EphrinB3-Fc (EB3) ectodomain proteins were sparsely immobilized onto biosensors and then exposed to 50 nM of soluble human EphB1-His, EphB2-His, and EphB4-His ectodomains for 800 sec association and 1,000 sec dissociation steps with a total of nine different interactions analyzed. In the absence of A20 chemical, the immobilized human EphrinB proteins bound to their appropriate human EphB target proteins; with EphrinB1 only bound EphB1 and EphB2, EphrinB2 bound all three EphB1, EphB2, and EphB4, and EphrinB3 only bound EphB1 and EphB2 (FIG. 19A-19B).
Addition of compound also altered dissociation kinetics. […] This is referred to as the “unsurmountable” component of the Eph-Ephrin interaction (FIG. 21C). Additionally, AUC data was graphed for these runs (FIG. 21D). […] For EB2-EphB4, the dimer:tetramer ratio was 83:8 in the presence of A20 and was not much different from the no compound control run because it is already a strong dimer-driven interaction. […] A similar though more muted effect of A20 on tetramer accumulation was also observed for the other interactions of immobilized human EphrinB binding to soluble human EphB1 and EphB2 ectodomains (FIG. 22). The inhibitory effect of A20 is strongest on the EB2-EphB2 interaction with absolute IC50 reaching 1 μM, followed by the EB2-EphB1 interaction with absolute IC50-10 μM. […]

T1 sequence (P54763 19-543 limits assumed): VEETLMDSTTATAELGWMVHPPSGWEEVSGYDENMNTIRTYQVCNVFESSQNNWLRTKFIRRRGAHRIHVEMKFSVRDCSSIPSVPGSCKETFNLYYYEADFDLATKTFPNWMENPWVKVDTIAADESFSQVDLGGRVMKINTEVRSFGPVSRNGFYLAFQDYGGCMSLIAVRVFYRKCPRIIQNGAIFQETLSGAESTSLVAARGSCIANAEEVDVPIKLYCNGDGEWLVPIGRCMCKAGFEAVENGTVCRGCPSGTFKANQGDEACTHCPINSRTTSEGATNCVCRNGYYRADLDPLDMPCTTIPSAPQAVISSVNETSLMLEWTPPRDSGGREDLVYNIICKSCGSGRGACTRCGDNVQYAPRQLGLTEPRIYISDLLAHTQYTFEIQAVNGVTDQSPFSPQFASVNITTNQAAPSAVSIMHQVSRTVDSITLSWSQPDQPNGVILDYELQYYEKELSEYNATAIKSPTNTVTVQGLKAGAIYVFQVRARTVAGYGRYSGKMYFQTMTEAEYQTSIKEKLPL
EphB2-EphrinB2 tetramer, sequence (P29323 19-543 limits assumed): as the sequence (P54763 19-543 limits assumed) above, with L104S, N154S, K520Q counted along it

Structure (SMILES): Oc1c(Br)cc(CN2CCOCC2)c2cccnc12 [Compound 5, 7-bromo-5-(morpholinomethyl)quinolin-8-ol]
- cytotoxicity [1]: not toxic
- competition of pre-formed tetramers [2]: clearly disrupted in a dose-dependent fashion some of the pre-existing EB2-EphB1 tetramers
- pulldown EphB2 binding to EB2-His (EphB2-His-Fc / EB2-His): strong dose-dependent ability to antagonize EphB2-His-Fc protein binding to EB2-His
- IC50 (EphB2-His-Fc / EB2-His; pulldown, EphB2): ~10 µM
- average mass of protein species (EphB2-EphrinB2 tetramer; 10 μM A20 salt): 158 kDa
- average mass of protein species (EphB2-EphrinB2 tetramer; 50 μM A20 salt): 150 kDa
- reduction of tetramer formation (EphrinB1-EphB1; EB1-EphB1, A20): 15%
- antagonism of EphrinB1/EphrinB3 binding (EphrinB1-EphB1; EphB1/EphB2 with EB1 and EB3, species not given): can also antagonize EphB1/EphB2 proteins from binding to EphrinB1 (EB1) and EphrinB3 (EB3) proteins
- IC (maximum) (EphrinB1-EphB1; read-out: concentration producing maximum inhibition): 1 µM
